In patent US6706663B2, “Herbicidal 3-heterocyclic substituted benzisothiazole and benzisoxazole compounds” (Wyeth, priority 2000, dated 2004):

Key:
[1] = tested on: TRZAWR (Wheat, Winter, cv Riband); experiment: Preemergence herbicidal evaluation; type: in vivo, Triticum aestivum; conditions: rated 4-5 weeks after treatment
Outline: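 Seeds mixed with potting soil were planted atop about one inch of soil, then sprayed with test compound in aqueous acetone. Cups were kept in the greenhouse and rated visually 4–5 weeks after treatment on a 0–9 scale against untreated control.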

[2] = tested on: ECHCG (Echinochloa crus-galli); experiment: Postemergence herbicidal evaluation; type: in vivo, (L.) Beau; conditions: postemergence
Outline: (§1)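 Seedlings grown for about two weeks were sprayed postemergence and then kept under standard greenhouse care. Injury was rated visually 4–5 weeks after treatment on a 0–9 scale against untreated controls, and ratings from repeat tests were averaged.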

CYPIR (Cyperus iria) = experiment: Flooded paddy, preemergence weed control; type: in vivo; conditions: rated 3-4 weeks after treatment, 0-9 rating scale
Outline: (§2)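 Ratings of 0-9 reflect visual comparison with a control for stand, vigor, deformity, size, chlorosis and overall look. Propagules were placed in shallow silt loam (top 0.5 cm) under a continuous 1.5–3 cm flood and grown in the greenhouse.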

[3] = tested on: IPOHE (Ipomoea hederacea); experiment: Preemergence herbicidal evaluation; type: in vivo, (L.) Jacq.; conditions: rated 4-5 weeks after treatment
ORYSAT (Rice, Tebonnet) [4] = experiment: Postemergence herbicidal evaluation; type: in vivo, Oryza sativa, (L.) Tebonnet; conditions: postemergence
Outline: as §1

ORYSAT (Rice, Tebonnet) [5] = experiment: Preemergence herbicidal evaluation; type: in vivo, Oryza sativa, (L.) Tebonnet; conditions: rated 4-5 weeks after treatment
[6] = tested on: CHEAL (Chenopodium album); experiment: Postemergence herbicidal evaluation; type: in vivo, L.; conditions: postemergence
Outline: as §1

[7] = tested on: AMBEL (Ambrosia artemisifolia); experiment: Postemergence herbicidal evaluation; type: in vivo, L.; conditions: postemergence
Outline: as §1

[8] = tested on: CASOB (Cassia obtusifolia); experiment: Postemergence herbicidal evaluation; type: in vivo, L.; conditions: postemergence
Outline: as §1

[9] = tested on: ECHORC (Echinochloa oryzoides); experiment: Flooded paddy, preemergence weed control; type: in vivo, Echinochloa oryzoides (Ard.) Fritsch.; conditions: rated 3-4 weeks after treatment, 0-9 rating scale
Outline: as §2

[10] = tested on: SAGPY (Sagittaria pygmaea); experiment: Flooded paddy, preemergence weed control; type: in vivo, L.; conditions: rated 3-4 weeks after treatment, 0-9 rating scale
Outline: as §2

[11] = tested on: GLXMAW (Soybean, Williams); experiment: Preemergence herbicidal evaluation; type: in vivo, Glycine max, (L.) Merr. cv Williams; conditions: rated 4-5 weeks after treatment
ZEAMX (Corn, Field) = experiment: Postemergence herbicidal evaluation; type: in vivo, Zea mays, L.; conditions: postemergence
Outline: as §1

| Structure (SMILES) | Preemergence herbicidal rating TRZAWR ([1]; Rate 0.0620 kg/ha) | Preemergence herbicidal rating TRZAWR ([1]; Rate 0.1250 kg/ha) | Preemergence herbicidal rating TRZAWR ([1]; Rate 0.2500 kg/ha) | ECHCG herbicidal rating ([2]; rate 0.0320 kg/ha) | ECHCG herbicidal rating ([2]; rate 0.0620 kg/ha) | herbicidal rating, CYPIR (CYPIR (Cyperus iria); rate 0.0080 kg/ha) | herbicidal rating, CYPIR (CYPIR (Cyperus iria); rate 0.0320 kg/ha) | herbicidal rating, CYPIR (CYPIR (Cyperus iria); rate 0.1250 kg/ha) | Preemergence herbicidal rating IPOHE ([3]; Rate 0.0620 kg/ha) | Preemergence herbicidal rating IPOHE ([3]; Rate 0.1250 kg/ha) | Preemergence herbicidal rating IPOHE ([3]; Rate 0.2500 kg/ha) | ORYSAT herbicidal rating (ORYSAT (Rice, Tebonnet) [4]; rate 0.0320 kg/ha) | ORYSAT herbicidal rating (ORYSAT (Rice, Tebonnet) [4]; rate 0.0620 kg/ha) | Preemergence herbicidal rating ORYSAT (ORYSAT (Rice, Tebonnet) [5]; Rate 0.0620 kg/ha) | Preemergence herbicidal rating ORYSAT (ORYSAT (Rice, Tebonnet) [5]; Rate 0.1250 kg/ha) | Preemergence herbicidal rating ORYSAT (ORYSAT (Rice, Tebonnet) [5]; Rate 0.2500 kg/ha) | CHEAL herbicidal rating ([6]; rate 0.0320 kg/ha) | CHEAL herbicidal rating ([6]; rate 0.0620 kg/ha) | AMBEL herbicidal rating ([7]; rate 0.0320 kg/ha) | AMBEL herbicidal rating ([7]; rate 0.0620 kg/ha) | also measured |
| --- | --- | --- | --- | --- | --- | --- | --- | --- | --- | --- | --- | --- | --- | --- | --- | --- | --- | --- | --- | --- | --- |
| C=CC1COC(c2nsc3ccc(-n4c(=O)cc(C(F)(F)F)n(C)c4=O)cc23)O1 (stereo not drawn) [Compound 76, 1-methyl-6-(trifluoromethyl)-3-[3-(4-vinyl-1,3-dioxolan-2-yl)-1,2-benzisothiazol-5-yl]uracil] | 7.0 | 8.0 | 8.0 | 0.0 | 3.0 | 7.0 | 8.0 | 9.0 | 7.5 | 9.0 | 9.0 | 3.5 | 4.0 | 7.0 | 8.5 | 9.0 | 9.0 | 9.0 | 9.0 | 9.0 | CASOB herbicidal rating ([8]; rate 0.0320 kg/ha): 4.0; CASOB herbicidal rating ([8]; rate 0.0620 kg/ha): 5.0; herbicidal rating, ECHORC ([9]; rate 0.0080 kg/ha): 5.0; herbicidal rating, ECHORC ([9]; rate 0.0320 kg/ha): 7.0; herbicidal rating, ECHORC ([9]; rate 0.1250 kg/ha): 9.0; herbicidal rating, SAGPY ([10]; rate 0.0080 kg/ha): 0.0; herbicidal rating, SAGPY ([10]; rate 0.0320 kg/ha): 0.0; herbicidal rating, SAGPY ([10]; rate 0.1250 kg/ha): 9.0; Preemergence herbicidal rating GLXMAW ([11]; Rate 0.0620 kg/ha): 7.5; Preemergence herbicidal rating GLXMAW ([11]; Rate 0.1250 kg/ha): 9.0; Preemergence herbicidal rating GLXMAW ([11]; Rate 0.2500 kg/ha): 9.0; ZEAMX herbicidal rating (ZEAMX (Corn, Field); rate 0.0320 kg/ha): 3.5; ZEAMX herbicidal rating (ZEAMX (Corn, Field); rate 0.0620 kg/ha): 4.5 |
| CCCC1COC(c2nsc3ccc(-n4c(=O)cc(C(F)(F)F)n(C)c4=O)cc23)O1 (stereo not drawn) [Compound 77, 1-methyl-3-[3-(4-propyl-1,3-dioxolan-2-yl)-1,2-benzisothiazol-5-yl]-6-(trifluoromethyl)uracil] | 6.0 | 6.0 | 7.0 | 4.0 | 4.0 | 0.0 | 7.0 | 9.0 | 3.0 | 4.0 | 7.5 | 2.0 | 4.0 | 5.0 | 5.0 | 5.5 | 9.0 | 9.0 | 9.0 | 9.0 | CASOB herbicidal rating ([8]; rate 0.0320 kg/ha): 4.0; CASOB herbicidal rating ([8]; rate 0.0620 kg/ha): 6.0; herbicidal rating, ECHORC ([9]; rate 0.0080 kg/ha): 0.0; herbicidal rating, ECHORC ([9]; rate 0.0320 kg/ha): 5.0; herbicidal rating, ECHORC ([9]; rate 0.1250 kg/ha): 9.0; herbicidal rating, SAGPY ([10]; rate 0.0080 kg/ha): 0.0; herbicidal rating, SAGPY ([10]; rate 0.0320 kg/ha): 0.0; herbicidal rating, SAGPY ([10]; rate 0.1250 kg/ha): 5.0; Preemergence herbicidal rating GLXMAW ([11]; Rate 0.0620 kg/ha): 4.0; Preemergence herbicidal rating GLXMAW ([11]; Rate 0.1250 kg/ha): 6.0; Preemergence herbicidal rating GLXMAW ([11]; Rate 0.2500 kg/ha): 9.0; ZEAMX herbicidal rating (ZEAMX (Corn, Field); rate 0.0320 kg/ha): 3.0; ZEAMX herbicidal rating (ZEAMX (Corn, Field); rate 0.0620 kg/ha): 3.5 |
